# Data reported in patent US12600709B2, “Nonpeptide somatostatin type 5 receptor agonists and uses thereof” (Crinetics Pharmaceuticals, Inc., priority 2019, dated 2026).
# Like-named read-outs stand apart in the source and are kept apart here.
# Molecular target: T1, human somatostatin receptor subtype 5 (Homo sapiens, UniProt P35346)
# T1 construct: expressed in transfected cells
# Experiment: cAMP assay for SST5R (inhibition of cAMP in CHO-K1 cells)
# Type: cell-based
# Settings: for EC50: inhibition of cAMP via human SST5 receptor, read-out: SST5 potency
# Outline: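 CHO-K1 cells stably expressing human SSTR5 were treated 20 min at 37 °C with compounds plus 1.6 μM NKH477 in HBSS, 0.5 mM HEPES pH 7.4, 0.1% BSA, 0.2 mM IBMX. Lysate cAMP measured by HTRF against a standard curve; EC50 from cAMP-versus-concentration plots.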
# T1 sequence (P35346 whole entry): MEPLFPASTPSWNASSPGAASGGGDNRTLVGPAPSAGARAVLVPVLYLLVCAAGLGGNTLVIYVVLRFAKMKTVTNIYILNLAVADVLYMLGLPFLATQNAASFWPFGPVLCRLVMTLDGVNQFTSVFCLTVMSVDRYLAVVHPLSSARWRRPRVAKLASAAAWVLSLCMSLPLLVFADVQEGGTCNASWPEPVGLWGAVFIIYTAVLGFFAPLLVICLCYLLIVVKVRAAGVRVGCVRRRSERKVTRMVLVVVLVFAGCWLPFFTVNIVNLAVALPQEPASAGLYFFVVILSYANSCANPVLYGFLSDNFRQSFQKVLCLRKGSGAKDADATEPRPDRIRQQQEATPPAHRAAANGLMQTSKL
SMILES,EC50 (Table A) [nM],"Fold selectivity for SST5 vs SST2 (Table B, class symbols, SST5 receptor over SST2 receptor)",EC50 (Table B) [nM]
"COc1ncc(C(=O)NC2CCC(C(F)(F)F)CC2)c(N2CC[C@H](N)C2)c1-c1cc(F)cc(F)c1 (stereo partly drawn) [1-193, 4-[(3S)-3-aminopyrrolidin-1-yl]-5-(3,5-difluorophenyl)-6-methoxy-N-[4-(trifluoromethyl)cyclohexyl]pyridine-3-carboxamide]",100 to 1000,,
"N[C@H]1CCN(c2c(C(=O)NC3CCC(F)(F)CC3)cnc(OCCC(=O)O)c2-c2cc(F)cc(F)c2)C1 [1-204, 3-({4-[(3S)-3-aminopyrrolidin-1-yl]-5-[(4,4-difluorocyclohexyl)carbamoyl]-3-(3,5-difluorophenyl)pyridin-2-yl}oxy)propanoic acid]",> 1000,,
"CN(CC1CC1)C(=O)c1cnc(C#N)c(-c2cc(F)cc(F)c2)c1N1CC[C@](C)(N)C1 [1-218, 4-[(3S)-3-amino-3-methylpyrrolidin-1-yl]-6-cyano-N-(cyclopropylmethyl)-5-(3,5-difluorophenyl)-N-methylpyridine-3-carboxamide]",100 to 1000,,
"C[C@@H](NC(=O)c1cnc(C#N)c(-c2cc(F)cc(F)c2)c1N1CC[C@@H](N)C1)C(F)(F)F [1-227, 4-[(3R)-3-aminopyrrolidin-1-yl]-6-cyano-5-(3,5-difluorophenyl)-N-[(2R)-1,1,1-trifluoropropan-2-yl]pyridine-3-carboxamide]",100 to 1000,,
"COc1ncc(C(=O)N2CCCCC2)c(N2CC[C@H](N)C2)c1-c1cc(F)cc(F)c1 [1-235, (3S)-1-[3-(3,5-difluorophenyl)-2-methoxy-5-(piperidine-1-carbonyl)pyridin-4-yl]pyrrolidin-3-amine]",> 1000,,
"COc1ncc(C(=O)N2CCC(F)(F)CC2)c(N2CC[C@H](N)C2)c1-c1cc(F)cc(F)c1 [1-236, (3S)-1-[3-(3,5-difluorophenyl)-5-(4,4-difluoropiperidine-1-carbonyl)-2-methoxypyridin-4-yl]pyrrolidin-3-amine]",> 1000,,
"COc1ncc(C(=O)N2CCCC(F)(F)C2)c(N2CC[C@H](N)C2)c1-c1cc(F)cc(F)c1 [1-237, (3S)-1-[3-(3,5-difluorophenyl)-5-(3,3-difluoropiperidine-1-carbonyl)-2-methoxypyridin-4-yl]pyrrolidin-3-amine]",> 1000,,
"COc1ncc(C(=O)N[C@@H](C)c2ccccn2)c(N2CC[C@](C)(N)C2)c1-c1cc(F)cc(OC(F)F)c1 [1-241, 4-[(3S)-3-amino-3-methylpyrrolidin-1-yl]-5-[3-(difluoromethoxy)-5-fluorophenyl]-6-methoxy-N-[(1S)-1-(pyridin-2-yl)ethyl]pyridine-3-carboxamide]",10 to 100,,10 to 100
"CCNC(=O)c1cncc(-c2nc3c(C)cccc3[nH]2)c1N1CC[C@](C)(N)C1 [2-1, 4-[(3S)-3-amino-3-methylpyrrolidin-1-yl]-N-ethyl-5-(4-methyl-1H-1,3-benzodiazol-2-yl)pyridine-3-carboxamide]",10 to 100,,
"Cc1cccc2[nH]c(-c3cncc(C(=O)N4CCCC4)c3N3CC[C@](C)(N)C3)nc12 [2-2, (3S)-3-methyl-1-[3-(4-methyl-1H-1,3-benzodiazol-2-yl)-5-(pyrrolidine-1-carbonyl)pyridin-4-yl]pyrrolidin-3-amine]",10 to 100,,
"CCN(C)C(=O)c1cncc(-c2nc3c(C)cccc3[nH]2)c1N1CC[C@](C)(N)C1 [2-3, 4-[(3S)-3-amino-3-methylpyrrolidin-1-yl]-N-ethyl-N-methyl-5-(4-methyl-1H-1,3-benzodiazol-2-yl)pyridine-3-carboxamide]",10 to 100,,
"Cc1cccc2[nH]c(-c3cncc(C(=O)NC4CCOC4)c3N3CC[C@](C)(N)C3)nc12 (stereo partly drawn) [2-5, 4-[(3S)-3-amino-3-methylpyrrolidin-1-yl]-5-(4-methyl-1H-1,3-benzodiazol-2-yl)-N-(oxolan-3-yl)pyridine-3-carboxamide]",100 to 1000,,

# Now from value to molecule:
EC50 (Table A) [nM],"Fold selectivity for SST5 vs SST2 (Table B, class symbols, SST5 receptor over SST2 receptor)",EC50 (Table B) [nM],SMILES
10 to 100,,,"COc1ncc(C(=O)N[C@@H](C)C(F)(F)F)c(N2CC[C@](C)(N)C2)c1-c1cnc(C)nc1 [1-185, 4-[(3S)-3-amino-3-methylpyrrolidin-1-yl]-6-methoxy-5-(2-methylpyrimidin-5-yl)-N-[(2S)-1,1,1-trifluoropropan-2-yl]pyridine-3-carboxamide]"
< 10,,,"C[C@H](NC(=O)c1cnc(C(F)(F)F)c(-c2cc(F)cc(F)c2)c1N1CC[C@](C)(N)C1)C1CC1 [1-189, 4-[(3S)-3-amino-3-methylpyrrolidin-1-yl]-N-[(1S)-1-cyclopropylethyl]-5-(3,5-difluorophenyl)-6-(trifluoromethyl)pyridine-3-carboxamide]"
< 10,,,"C[C@H](NC(=O)c1cnc(OCC(F)(F)F)c(-c2cc(F)cc(F)c2)c1N1CC[C@](C)(N)C1)C1CC1 [1-190, 4-[(3S)-3-amino-3-methylpyrrolidin-1-yl]-N-[(1S)-1-cyclopropylethyl]-5-(3,5-difluorophenyl)-6-(2,2,2-trifluoroethoxy)pyridine-3-carboxamide]"
< 10,,,"C[C@H](NC(=O)c1cnc(OC2CC2)c(-c2cc(F)cc(F)c2)c1N1CC[C@](C)(N)C1)C1CC1 [1-191, 4-[(3S)-3-amino-3-methylpyrrolidin-1-yl]-6-cyclopropoxy-N-[(1S)-1-cyclopropylethyl]-5-(3,5-difluorophenyl)pyridine-3-carboxamide]"
< 10,,,"COc1ncc(C(=O)NC(C2CC2)C(F)(F)F)c(N2CC[C@H](N)C2)c1-c1cc(F)cc(F)c1 (stereo partly drawn) [1-194, 4-[(3S)-3-aminopyrrolidin-1-yl]-N-(1-cyclopropyl-2,2,2-trifluoroethyl)-5-(3,5-difluorophenyl)-6-methoxypyridine-3-carboxamide]"
< 10,,,"N[C@H]1CCN(c2c(C(=O)NC3CCC(F)(F)CC3)cnc(OCC(=O)O)c2-c2cc(F)cc(F)c2)C1 [1-203, 2-({4-[(3S)-3-aminopyrrolidin-1-yl]-5-[(4,4-difluorocyclohexyl)carbamoyl]-3-(3,5-difluorophenyl)pyridin-2-yl}oxy)acetic acid]"
< 10,,,"N[C@H]1CCN(c2c(C(=O)NC3CCC(F)(F)CC3)cnc(OCCCC(=O)O)c2-c2cc(F)cc(F)c2)C1 [1-205, 4-({4-[(3S)-3-aminopyrrolidin-1-yl]-5-[(4,4-difluorocyclohexyl)carbamoyl]-3-(3,5-difluorophenyl)pyridin-2-yl}oxy)butanoic acid]"
< 10,+++ (+++=>500),< 10,"C[C@H](NC(=O)c1cnc(C(F)(F)F)c(-c2ccc(F)c(F)c2)c1N1CC[C@](C)(N)C1)C1CC1 [1-209, 4-[(3S)-3-amino-3-methylpyrrolidin-1-yl]-N-[(1S)-1-cyclopropylethyl]-5-(3,4-difluorophenyl)-6-(trifluoromethyl)pyridine-3-carboxamide]"
< 10,,,"C[C@]1(N)CCN(c2c(C(=O)NC3CCC(F)(F)CC3)cnc(C(F)(F)F)c2-c2cc(F)cc(F)c2)C1 [1-211, 4-[(3S)-3-amino-3-methylpyrrolidin-1-yl]-N-(4,4-difluorocyclohexyl)-5-(3,5-difluorophenyl)-6-(trifluoromethyl)pyridine-3-carboxamide]"
< 10,,,"C[C@@H](C1CC1)N(C)C(=O)c1cnc(C#N)c(-c2cc(F)cc(F)c2)c1N1CC[C@](C)(N)C1 [1-219, 4-[(3S)-3-amino-3-methylpyrrolidin-1-yl]-6-cyano-N-[(1S)-1-cyclopropylethyl]-5-(3,5-difluorophenyl)-N-methylpyridine-3-carboxamide]"
< 10,,,"C[C@@H](NC(=O)c1cnc(C#N)c(-c2cc(F)cc(F)c2)c1N1CC[C@](C)(N)C1)C(F)(F)F [1-222, 4-[(3S)-3-amino-3-methylpyrrolidin-1-yl]-6-cyano-5-(3,5-difluorophenyl)-N-[(2R)-1,1,1-trifluoropropan-2-yl]pyridine-3-carboxamide]"
10 to 100,,,"Cc1ncc(C(=O)NCC2(O)CCCC2)c(N2CC[C@](C)(N)C2)c1-c1cc(F)cc(F)c1 [1-223, 4-[(3S)-3-amino-3-methylpyrrolidin-1-yl]-5-(3,5-difluorophenyl)-N-[(1-hydroxycyclopentyl)methyl]-6-methylpyridine-3-carboxamide]"
10 to 100,,,"Cc1ncc(C(=O)NC(CO)C2CC2)c(N2CC[C@](C)(N)C2)c1-c1cc(F)cc(F)c1 (stereo partly drawn) [1-224, 4-[(3S)-3-amino-3-methylpyrrolidin-1-yl]-N-(1-cyclopropyl-2-hydroxyethyl)-5-(3,5-difluorophenyl)-6-methylpyridine-3-carboxamide]"
< 10,,,"CC(NC(=O)c1cnc(C#N)c(-c2cc(F)cc(F)c2)c1N1CCC(N)C1)C(F)(F)F (stereo not drawn) [1-225, 4-(3-aminopyrrolidin-1-yl)-6-cyano-5-(3,5-difluorophenyl)-N-(1,1,1-trifluoropropan-2-yl)pyridine-3-carboxamide]"
< 10,,,"Cc1ncc(C(=O)N[C@@H](C)c2ccccn2)c(N2CC[C@](C)(N)C2)c1-c1cc(F)cc(Cl)c1 [1-243, 4-[(3S)-3-amino-3-methylpyrrolidin-1-yl]-5-(3-chloro-5-fluorophenyl)-6-methyl-N-[(1S)-1-(pyridin-2-yl)ethyl]pyridine-3-carboxamide]"
< 10,,,"C[C@]1(N)CCN(c2c(C(=O)NC3CCC(F)(F)CC3)cnc(C3CC3)c2-c2cc(F)cc(F)c2)C1 [1-281, 4-[(3S)-3-amino-3-methylpyrrolidin-1-yl]-6-cyclopropyl-N-(4,4-difluorocyclohexyl)-5-(3,5-difluorophenyl)pyridine-3-carboxamide]"
< 10,,,"C[C@H](NC(=O)c1cnc(C2CC2)c(-c2cc(F)cc(F)c2)c1N1CC[C@](C)(N)C1)C(F)(F)F [1-290, 4-[(3S)-3-amino-3-methylpyrrolidin-1-yl]-6-cyclopropyl-5-(3,5-difluorophenyl)-N-[(2S)-1,1,1-trifluoropropan-2-yl]pyridine-3-carboxamide]"
< 10,,,"Cc1cccc2[nH]c(-c3cncc(C(=O)NC4CCCC4)c3N3CC[C@](C)(N)C3)nc12 [2-4, 4-[(3S)-3-amino-3-methylpyrrolidin-1-yl]-N-cyclopentyl-5-(4-methyl-1H-1,3-benzodiazol-2-yl)pyridine-3-carboxamide]"
